# Molecular target: α-glucosidase
# Test: p-NPG hydrolysis assay with commercial enzyme (Sigma-Aldrich), absorbance at […] nm
# Assay type: biochemical
compound,measurement,value
Oc1cc(O)c2c(c1)O[C@H](c1ccc(O)c(O)c1)[C@@H](O)C2 [Catechin],"α-Glucosidase Inhibitory Activity IC50 (μg/mL), ±SD",87.55 ± 2.23 µg/mL
